Data on eleven molecules can be found in patent publication US8580829B2 (Boehringer Ingelheim International GmbH, priority 2010, dated 2013).

Experiment [1] deals with T1, recombinant human FLAP protein (Homo sapiens, UniProt P20292).
T1 construct: made in house; host or cells: Sf9 insect cells (100,000 x g membrane fraction)
T1 sequence (P20292 1-161): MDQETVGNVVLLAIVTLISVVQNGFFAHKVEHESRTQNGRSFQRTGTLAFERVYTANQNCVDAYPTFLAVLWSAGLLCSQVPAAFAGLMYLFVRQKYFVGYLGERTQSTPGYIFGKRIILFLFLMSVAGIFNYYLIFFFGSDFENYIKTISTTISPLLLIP
As to the kind of experiment: FLAP binding assay (Scintillation Proximity Assay, displacement of [125I]L-691,831). As to conditions: recombinant human FLAP membranes, [125I]L-691,831 probe; read-out: FLAP SPA IC50. The protocol: Cell pellets produced from sf9 insect cells expressing recombinant human FLAP protein are resuspended in buffer A [15 mM Tris-HCl (pH 7.5), 2 mM MgCl2, 0.3 mM EDTA, 1 mM PMSF]. The cells are lysed with a Dounce homogenizer and the material is centrifuged at 10,000×g for 10 minutes. The supernatant is then collected and centrifuged at 100,000×g for 60 minutes. To prepare membrane protein for an assay, an aliquot of the 100,000×g pellet is resuspended in 1 ml of buffer A, Dounce homogenized, and finally subjected to polytron mixing (30 seconds). Membrane protein (25 μl, 5 μg) is mixed with WGA SPA beads (Amersham) and stirred for 1 h.
A general note: Scintillation proximity formats need no separation of bound from free tracer.

For experiment [2], the system named is synthesis of LTB4 in human whole blood. Kind of experiment: human whole blood LTB4 production inhibition assay. The class given is cell-based. The note with it: heparinized human whole blood, calcimycin 20 μM, read-out: hWB LTB4 IC50. The protocol:
Compounds are additionally tested in a human whole blood assay to determine their ability to inhibit the synthesis of LTB4 in a cellular system. Compounds are combined with heparinized human whole blood and incubated for 15 minutes at 37° C. Calcimycin (20 μM final, prepared in phosphate-buffered saline, pH 7.4) is then added and the mixture is incubated for another 30 minutes at 37° C. The samples are centrifuged for 5 min at low speed (1500×g) and the plasma layer is removed. Plasma LTB4 concentrations are then measured using an antibody-based homogenous time-resolved fluorescence method (CisBio, Bedford, Mass.).

Like-named read-outs stand apart in the source and are kept apart here. Bounds are passed on as bounds.

`CN(C)C(=O)Cn1cc(-c2nc(C3(c4ccc(-c5cnc(N)cn5)cc4)CCC3)no2)cn1` [Example 304, 2-[4-(3-{1-[4-(5-Amino-pyrazin-2-yl)-phenyl]-cyclobutyl}-[1,2,4]oxadiazol-5-yl)-pyrazol-1-yl]-N,N-dimethyl-acetamide]: the half-inhibitory concentration (IC50) was 10 nM in experiment [1] and 65 nM in experiment [2] (Homo sapiens).
As for `CS(=O)(=O)Nc1nc(C2(c3ccc(-c4cnc(N)nc4)cc3)CCC2)no1` [Example 27, N-(3-{1-[4-(2-Amino-pyrimidin-5-yl)-phenyl]-cyclobutyl}-1,2,4-oxadiazol-5-yl)-methanesulfonamide], the half-inhibitory concentration (IC50) in experiment [1] is 340 nM; in experiment [2] (Homo sapiens), > 5000 nM.
As to `Nc1ncc(-c2ccc(C3(c4noc(-c5ccc(C(=O)N6CCOCC6)nc5)n4)CCC3)cc2)cn1` [Example 30, [5-(3-{1-[4-(2-Amino-pyrimidin-5-yl)-phenyl]-cyclobutyl}-1,2,4-oxadiazol-5-yl)-pyridin-2-yl]-morpholin-4-yl-methanone], the IC50 in experiment [1] amounted to 6.5 nM; in experiment [2] (Homo sapiens) it was 230 nM.
Taken in the same sequence, the figures for `Nc1ncc(-c2ccc(C3(c4noc(-c5ccc(O)c(Cl)c5)n4)CCC3)cc2)cn1` [Example 100, 4-(3-{1-[4-(2-Amino-pyrimidin-5-yl)-phenyl]-cyclobutyl}-1,2,4-oxadiazol-5-yl)-2-chloro-phenol] were 2.1 nM and 170 nM.
Taken in the same sequence, the figures for `CC(C(=O)N(C)C)n1cc(-c2nc(C3(c4ccc(-c5cnc(N)nc5)cc4)CCC3)no2)cn1` (stereo not shown) [Example 133, 2-[4-(3-{1-[4-(2-Amino-pyrimidin-5-yl)-phenyl]-cyclobutyl}-1,2,4-oxadiazol-5-yl)-pyrazol-1-yl]-N,N-dimethyl-propionamide] were 4.3 nM and 72 nM.
Taken in the same sequence, the figures for `CN(CCO)c1ccc(-c2nc(C3(c4ccc(-c5cnc(N)nc5)cc4)CCC3)no2)cn1` [Example 181, 2-{[5-(3-{1-[4-(2-Amino-pyrimidin-5-yl)-phenyl]-cyclobutyl}-1,2,4-oxadiazol-5-yl)-pyridin-2-yl]-methyl-amino}-ethanol] were 1.2 nM and 62 nM.
Regarding `Nc1ncc(-c2ccc(C3(c4noc(COCc5ccccc5)n4)CCOCC3)cc2)cn1` [Example 151, 5-{4-[4-(5-Benzyloxymethyl-1,2,4-oxadiazol-3-yl)-tetrahydro-pyran-4-yl]-phenyl}-pyrimidin-2-ylamine], the IC50 in experiment [1] is 210 nM; in experiment [2] (Homo sapiens), > 5000 nM.
Taken in the same sequence, the figures for `COCCN(C)c1cnc(-c2nc(C3(c4ccc(-c5cnc(N)nc5)cc4)CCC3)no2)cn1` [Example 198, 5-{4-[1-(5-{5-[(2-Methoxy-ethyl)-methyl-amino]-pyrazin-2-yl}-1,2,4-oxadiazol-3-yl)-cyclobutyl]-phenyl}-pyrimidin-2-ylamine] were 2 nM and 57 nM.
As for `CN1CCCCC1c1nc(C2(c3ccc(-c4cnc(N)nc4)cc3)CCC2)no1` (stereo not shown) [Example 280, 5-(4-{1-[5-(1-Methyl-piperidin-2-yl)-[1,2,4]oxadiazol-3-yl]-cyclobutyl}-phenyl)-pyrimidin-2-ylamine], the IC50 in experiment [1] came to 17 nM; in experiment [2] (Homo sapiens) it was 1400 nM.
On to `COC(=O)[C@@H]1CN(c2cnc(-c3nc(C4(c5ccc(-c6cnc(N)nc6)cc5)CCC4)no3)cn2)CCN1` [Example 126, (S)-5′-(3-{1-[4-(2-Amino-pyrimidin-5-yl)-phenyl]-cyclobutyl}-1,2,4-oxadiazol-5-yl)-3,4,5,6-tetrahydro-2H-1,2′-bipyrazinyl-3-carboxylic acid methyl ester], for which the half-inhibitory concentration (IC50) in experiment [1] was 5.7 nM; in experiment [2], > 5000 nM.
In the case of `Nc1ncc(-c2ccc(C3(c4noc(N5CCC(O)CC5)n4)CCC3)cc2)cn1` [Example 284, 1-(3-{1-[4-(2-Amino-pyrimidin-5-yl)-phenyl]-cyclobutyl}-[1,2,4]oxadiazol-5-yl)-piperidin-4-ol], the IC50 in experiment [1] stood at 18 nM; in experiment [2] (Homo sapiens) it was 120 nM.

What is called IC50 is the concentration that gives 50% inhibition.
